According to patent US8865748B2, “Compounds and compositions for stabilizing hypoxia inducible factor-2 alpha as a method for treating cancer” (Akebia Therapeutics Inc., priority 2011, dated 2014):

Columns and labels:
VEGF [1] = assay: VEGF production by human peripheral blood monocytes (ELISA, real-time PCR); type: cell-based; details: FIG. 11C
Protocol: (§1) Human peripheral blood mononuclear cells (PBMCs) were isolated from fresh peripheral blood leukocyte source packs (American Red Cross, Columbus Ohio) by density gradient centrifugation over Lymphocyte Separation Medium (Cellgro). Monocytes were purified from total PBMCs by layering over FBS. Monocytes were cultured in endotoxin-free RPMI-1640 supplemented with 1% fetal bovine serum (FBS), 0.1% human serum albumin (HSA), and 10 μg/mL of the endotoxin inhibitor polymyxin B. In some experiments, freshly isolated monocytes were differentiated into macrophages by three-day culture in media containing 10% FBS, 1% PSA (penicillin G sodium, streptomycin sulfate, and amphotericin B), and 20 ng/mL M-CSF. Macrophages were serum-starved for 2 hours prior to stimulation. Monocytes or monocyte-derived macrophages were treated for 24 hours with 10 ng/mL GM-CSF, 10 μM disclosed HIF-2α stabilizer, or an equivalent volume of the vehicle controls (PBS or DMSO, respectively). Cell-free culture supernatants were harvested and analyzed for VEGF or sVEGFR-1 by ELISA (R&D Systems).
(§2) Human monocytes were left untreated or were stimulated with 100 ng/mL GM-CSF at normoxia or at 0.5% O2. At various time-points, cells were harvested in Trizol reagent (Invitrogen) and RNA was extracted in chloroform and then purified using the RNeasy Minikit (Qiagen). In murine studies, organs harvested at the time of euthanasia were flash-frozen in liquid nitrogen, pulverized in liquid nitrogen, and then dissolved in Trizol. cDNA was generated from 1 μg of RNA using the Superscript First Strand Synthesis System (Invitrogen) and used for real-time PCR using previously described primers and SYBR Green PCR Master Mix (Applied Biosciences), according to the manufacturer's instructions. Data were analyzed according to the comparative threshold method and normalized against the β-actin internal control transcript. Results are semi-quantitative and represent the fold difference in transcript levels in a particular sample as compared with levels in untreated cells from the same donor.
VEGF protein was undetectable in the supernatants of GM-CSF-stimulated monocytes, due to neutralization of VEGF by sVEGFR-1 (FIG. 11C).
Since monocyte production of VEGF was dependent on HIF-1α, the inventors herein determined whether selective stabilization of HIF-1α via inhibition of PHD2 would increase monocyte production of VEGF but not sVEGFR-1. In order to make such determination, human peripheral blood monocytes were stimulated with GM-CSF in the presence of a selective inhibitor of PHD2 which results in the stabilization of HIF-1α.

sVEGFR-1 = sVEGFR-1 production by human peripheral blood monocytes (ELISA, real-time PCR); type: cell-based; details: GM-CSF stimulation; FIG. 11D
Protocol: as §1
Human monocytes were left untreated or were stimulated with 100 ng/mL GM-CSF at normoxia or at 0.5% O2. At various time-points, cells were harvested in Trizol reagent (Invitrogen) and RNA was extracted in chloroform and then purified using the RNeasy Minikit (Qiagen). […] Data were analyzed according to the comparative threshold method and normalized against the β-actin internal control transcript. Results are semi-quantitative and represent the fold difference in transcript levels in a particular sample as compared with levels in untreated cells from the same donor.
Since monocyte production of VEGF was dependent on HIF-1α, the inventors herein determined whether selective stabilization of HIF-1α via inhibition of PHD2 would increase monocyte production of VEGF but not sVEGFR-1. […]

B16F10 melanoma tumors = assay: Murine melanoma tumor model (B16F10 in C57BL/6 mice); type: in vivo
Protocol: Mice were injected with 1×10^5 B16F10 murine melanoma cells murine subcutaneously on the left flank. Once tumors become palpable (approximately 5 days), mice were randomly allocated to receive treatment with either: 20% polyethylene glycol (PEG) in 5% […] (vehicle control for the disclosed HIF-2α stabilizer) and PBS (vehicle control for GM-CSF), 20% PEG and GM-CSF (100 ng per mouse in a 50 μL volume), the disclosed HIF-2α stabilizer (17.5 mg/kg in a 100 μL volume) and PBS, or the disclosed HIF-2α stabilizer and GM-CSF (same doses). The PBS and GM-CSF were administered intratumorally, while the 20% PEG and the disclosed HIF-2α stabilizer were administered intraperitoneally. Mice were treated 3 times per week until tumors reached a size of 20 mm in any dimension (approximately 2.5 weeks), at which point mice were euthanized, in accordance with institutional policy. Tumor diameters were measured 3 times per week with calipers, and tumor volumes were calculated as follows: Tumor volume=0.5×[(large diameter)×(small diameter)^2].
6-8-week-old C57BL/6 mice were injected with 1×10^5 B16F10 murine melanoma cells murine subcutaneously on the left flank. Once tumors become palpable (approximately 5 days), mice were randomly allocated to receive treatment with either: 20% PEG-400 in 5% sucrose (vehicle for disclosed HIF-2α stabilizer) and PBS (vehicle for GM-CSF), 20% PEG-400 and GM-CSF (100 ng per mouse in a 50 μL volume), disclosed HIF-2α stabilizer (17.5 mg/kg mouse weight in a 100 μL volume) and PBS, or the disclosed HIF-2α stabilizer and GM-CSF (same concentrations). The disclosed HIF-2α stabilizer (or the vehicle control) was administered intraperitoneally, while GM-CSF (or the vehicle control) was administered intratumorally. Mice were treated […] 3 times per week until tumors reached a size of 20 mm in any dimension (approximately 2.5 weeks), at which point mice were be euthanized, in accordance with institutional policy. Tumor diameters were measured 3 times per week with calipers, and tumor volumes will be calculated as follows: Tumor volume=0.5×[(large diameter)×(small diameter)^2]. For experiments analyzing the effect of neutralizing sVEGFR-1 in combination with disclosed HIF-2α stabilizer treatment, mice were treated intraperitoneally 3×/week with either disclosed HIF-2α stabilizer or vehicle control, and intratumorally with either 4 μg anti-VEGFR-1 neutralizing antibody (R&D Systems) or 4 μg polyclonal goat IgG isotype control (Santa Cruz Biotechnology) in a 50 μL volume. All protocols were approved by the Ohio State University Animal Care and Use Committee, and mice were treated in accordance with institutional guidelines for animal care.
The ANOVA test was used to compare independent measurements between multiple treatment groups. The data was log-transformed to normalize the variance across groups. P-values were adjusted using the Holm's procedure to conserve the type I error at 0.05 due to the multiple comparisons. For tumor growth data, changes in tumor volume over time were assessed via a longitudinal model. Tumor values were log-transformed, and estimated slopes (changes in tumor volume over time) were calculated with 95% confidence intervals. Estimated differences in tumor volume were calculated by a random-effects regression of the longitudinal data. For all analyses, p≦0.05 was considered statistically significant.
To confirm that the modulation of tumor growth and angiogenesis was due to sVEGFR-1 production in response to the disclosed HIF-2α stabilizer, mice were treated with the disclosed HIF-2α stabilizer in the presence or absence of an sVEGFR-1 neutralizing Ab.
6-8-week-old C57BL/6 mice or SCID mice were injected with 1×10^5 B16F10 murine melanoma cells or 1×10^6 A375 human melanoma cells, respectively, subcutaneously on the left flank. […]

VEGF [2] = assay: VEGF mRNA within B16F10 tumors (real-time PCR); type: in vivo, mice; details: FIG. 13B; p=0.490
Protocol: as §2
6-8-week-old C57BL/6 mice were injected with 1×10^5 B16F10 murine melanoma cells murine subcutaneously on the left flank. […] Tumor diameters were measured 3 times per week with calipers, and tumor volumes will be calculated as follows: Tumor volume=0.5×[(large diameter)×(small diameter)^2]. […]

## GM-CSF: granulocyte-macrophage colony-stimulating factor
VEGF [1]; GM-CSF stimulation
  VEGF production, transcript levels by real-time PCR: increased
VEGF [1]; GM-CSF-stimulated monocytes, ELISA detects free VEGF only
  VEGF protein in supernatants: undetectable
sVEGFR-1
  monocyte production of sVEGFR-1: induced
B16F10 melanoma tumors; FIG. 3, stabilizer 17 mg/kg I.P., GM-CSF 100 ng per mouse I.T., 3 times per week, vs. PBS control
  tumor growth (tumor volume): reduction in tumor volume
B16F10 melanoma tumors; FIG. 4, stabilizer 17 mg/kg delivered I.P. in all cases, no control group
  tumor volume reduction, GM-CSF administered I.T. vs. I.P.: greater reduction of tumor volume
B16F10 melanoma tumors; day 16 of treatment, GM-CSF 100 ng/mouse intratumoral or stabilizer 17.5 mg/kg intraperitoneal, 3x/week, each p<0.001
  average tumor volumes vs. vehicle controls: significantly smaller
VEGF [2]
  levels of intratumoral VEGF over vehicle control-treated mice: failed to increase
